Calls of active or inactive are those of the source.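 Rule for the calls: active = compounds giving half or more protection of infected cells from virus-caused growth loss, again on retest; inactive = the rest.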
Tested on: CEM cells HIV-1 protection, formazan growth assay
Experiment: NCI AIDS Antiviral Assay
Details: for IC50: measured here: growth of uninfected CEM cells
Outline: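 Human CEM cells, uninfected and HIV-1-infected, exposed to five drug concentrations; growth measured by soluble formazan assay and scored as percent protection from infection, with protecting compounds retested.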

Structure (SMILES)	EC50 [µM]	IC50 [µM]	outcome
C=C1CC2(OC1=O)c1ccccc1C=Cc1ccccc12	> 26.3	4.57	–
CCCCCCCCC(C)CCCCCCCCC(=O)OCC(COP(=O)([O-])OCC[N+](C)(C)C)OC(=O)CCCCCCCCC(C)CCCCCCCC (centres undefined)	–	–	inactive
CCCCCCCCCCCCC/C=C/[C@H]1[C@@H](C(=O)OC)N1S(=O)c1ccc(C)cc1 (some centres undefined)	> 200	74.1	–
COc1cc(/C=C2\C(=O)N(c3ccccc3)C(c3ccccc3)S2(=O)=O)cc(OC)c1OC (centres undefined)	> 20	2.88	–
O=C(NNc1ccnc2cc(Cl)ccc12)/C(=C/c1ccc2c(c1)OCO2)NC(=O)c1ccccc1	> 100	8.51	–
COc1ccc2c(ccc3c(COC(=O)NC(C)C)c(COC(=O)NC(C)C)n(C)c32)c1	> 200	0.112	–
COc1ccc(-c2cc(=O)cc(C(N)=O)o2)cc1	> 200	> 200	–
N#C/C(c1nc2ccccc2[nH]1)=c1\s/c(=C/c2ccc(Cl)cc2)c(=O)n1-c1ccccc1	> 200	107	–
CCOC(=O)N1C/C(=C\c2ccccc2)C(=O)/C(=C/c2ccccc2)C1	> 100	1.82	–
CC1(C)C[C@H]2[C@H](O)C(CO)=C3CC(O)C3(C)[C@H]2C1 (some centres undefined)	> 141	66.1	–
CS(=O)(=O)OCCCNCCCOS(C)(=O)=O	> 759	562	–
S=C(SSC(=S)N1CCOCC1)N1CCOCC1	> 20	0.724	–
Cc1ccc(C)c(COCCOCn2c(=O)[nH]c(=O)c3cc(Br)ccc32)c1	> 200	> 200	–
O=C(Nc1cc(Cl)c(Cl)cc1Cl)C(=O)C(C(=O)c1ccc2ccccc2c1)C1OC(=O)c2ccccc21 (centres undefined)	> 64.6	31.6	–
OC1C2CCCC1C1(CCCCC1)C1CCCCC21O (centres undefined)	–	–	inactive
CCNC(=O)c1cc(NC(=O)c2ccc(C(=O)Nc3cc(C(=O)NCC)cc(C4=NCCN4)c3)cc2)cc(C2=NCCN2)c1	> 200	87.1	–
CC(C)N(C(=O)C12C3C4C1C1C4(C#N)C3C12C#N)C(C)C (centres undefined)	> 129	> 129	–
CC(=O)OCC12C(OC(C)=O)C[C@@H](C)C3(CC(c4ccoc4)OC3=O)C1CCC(O)C21CO1 (some centres undefined)	> 200	> 200	–
COc1ccc2c(c1)N(CC(C)CN(C)C)c1ccccc1S2 (centres undefined)	> 200	> 200	–
O=Cc1ccc(C(F)(F)F)cc1.[C-]#[O+].[C-]#[O+].[C-]#[O+].[Cr]	> 20	3.98	–
OCCN(CCO)c1ncnc2c1sc(=S)n2-c1ccccc1	> 724	282	–

Structure (SMILES)	EC50 [µM]	IC50 [µM]	outcome
O=C(Cc1csc2[n+]1C(=O)/C(=C/c1cccc([N+](=O)[O-])c1)S2)Nc1ccccc1	–	–	inactive
[O]=[Sb]([OH])([OH])[c]1ccc(O)cc1	> 200	33.9	–
COc1cccc2c(N)c3cccc(C(=O)NCCN(C)C)c3nc12	> 0.2	0.0331	–
CC1=C(C)C(=O)c2c(cc3ccccn23)C1=O	–	–	inactive
CN1c2ccccc2S(=O)(=O)n2c(COc3ccc(Cl)cc3)nnc21	> 200	> 200	–
O=P(O)(O)OP(=O)(O)O.[NH-]CC[NH-].[NH-]CC[NH-].[Pd+2].[Pd+2]	> 200	102	–
O=c1[nH]c(=O)c2c3n(cc2[nH]1)CCCCC3	> 200	> 200	–
O=C(Nc1cc(Cl)c(Cl)cc1Cl)C(=O)C1C=CCS1(=O)=O (centres undefined)	> 51.3	> 51.3	–
CCOC(=O)C(NC(=O)C(CCCCNP(=O)(OCC)OCC)NC(=O)C(C)NC(C)=O)C(C)C (centres undefined)	> 200	> 200	–
CC(C)CCCC(C)[C@H]1CCC2C3CCC4C[C@@H](CCCC(c5cc(Cl)c(O)c(C(=O)O)c5)c5cc(Cl)c(O)c(C(=O)O)c5)CC[C@]4(C)C3CC[C@@]21C (some centres undefined)	8.91	> 200	–
CC(C)(C)O/C=C1/C(=O)OC2C[C@@H](O[Si](C)(C)C(C)(C)C)CC12 (some centres undefined)	> 200	120	–
COC(=O)N/N=C(\C)C(CN(C)C)C(c1ccccc1)c1c(O)c2ccccc2oc1=O (centres undefined)	> 28.8	> 28.8	–
Cc1n[nH]c(C)c1N=O	> 200	4.27	–
COc1ccc2c(c1)CC1Cc3cc(OC)c(OC)cc3CN1CC2 (centres undefined)	> 200	23.4	–
O=[N+]([O-])c1cc([N+](=O)[O-])c2no[n+]([O-])c2c1Nc1ccccc1	> 56.2	> 56.2	–
CCOC(=O)C1=[N+]([O-])OC2=C(O)CCCC21 (centres undefined)	–	–	inactive
C=C(C)[C@@H]1CC=C2[C@H](O)CC(O)C(C)[C@@]2(C)C1 (some centres undefined)	> 209	51.3	–
CC(C)[C@@H]1CC[C@@H](C)C[C@H]1OC(=O)/C=C1\C(C(=O)O[C@@H]2C[C@H](C)CC[C@H]2C(C)C)[C@H]2C=C[C@@H]1O2 (some centres undefined)	> 200	> 200	–
NC(CCOCCP(=O)(O)O)C(=O)O (centres undefined)	> 200	> 200	–
O=C1CC2(CCNCC2)C(=O)N1N1CCCCC1	> 200	> 200	–
CC(C)O[C@H]1N(C2CC(N=[N+]=[N-])C(CO)O2)C(=O)NC(=O)[C@]1(C)Br (some centres undefined)	2.88	> 200	–

Structure (SMILES)	EC50 [µM]	IC50 [µM]	outcome
CC1=NOC(=O)C1N=Nc1ccc(Br)c(C)c1 (centres undefined)	–	–	inactive
CC12CCCN1C(=O)C1(C)CCCN1C2=O (centres undefined)	> 200	> 200	–
COc1cc(O)c(C(=O)c2ccccc2)cc1S(=O)(=O)O	> 776	> 776	–
N#C/C(=C\c1ccc[nH]1)C(=O)c1ccccc1	> 309	> 309	–
CC(C)CCC1(O)O[C@H]2C[C@H]3[C@@H]4CCC5CC(=O)C=C[C@]5(C)[C@H]4CC[C@]3(C)[C@H]2[C@@H]1C (some centres undefined)	> 151	21.4	–
CC(C)(C)COC(=O)C(C)(C)NC(=O)C(CC(=O)OCc1ccccc1)NC(=O)OCc1ccccc1 (centres undefined)	> 200	19.1	–
COC(=O)[C@H](Cc1ccccc1)NC(=O)NCCN(CCNC(=O)N[C@@H](Cc1ccccc1)C(=O)OC)C(=O)N[C@@H](Cc1ccccc1)C(=O)OC	> 200	33.9	–
CSc1nc(N)c2c(-c3ccccc3)c3c(nc2n1)CCCC3	> 200	> 200	–
CCCCN=C(NC#N)N(Cc1ccccc1)Cc1ccccc1	> 100	22.9	–
CC1=C(C(=O)Nc2ccccc2)C(c2ccc(C3C(C(=O)Nc4ccccc4)=C(C)NC(C)=C3C(=O)Nc3ccccc3)cc2)C(C(=O)Nc2ccccc2)=C(C)N1	> 12.9	2.4	–
c1ccc2c(c1)CCc1[nH]c3c(c1-2)-c1ccccc1CC3	> 200	30.9	–
COc1ccccc1NC(=S)Nc1cccc(C)n1	16.6	61.7	–
CCOC(=O)C1=NN(c2ccccc2)C(=O)/C1=C\n1c(=S)sc2ccccc21	> 100	51.3	–
O=c1[nH]nc(-c2ccc3ccccc3c2)[nH]1	135	> 200	–
CC(C)NC(=O)OCc1nnn2c1C(OC(=O)NC(C)C)CC2 (centres undefined)	–	–	inactive
CC1(Cl)C(=O)NN=C1c1ccc([N+](=O)[O-])cc1 (centres undefined)	> 200	17.8	–
CC1(C)O[C@@H](CC/C=C/CO)[C@H](CC/C=C/CO)O1	–	–	inactive
CC(C)(C)C(=O)/C=C/c1ccc(C#N)cc1	–	38.9	inactive
COC1/C=C/C=C/C=C/CC(OC(=O)C(C)NC(=O)C2CCCCC2)C(C)C(O)/C(C)=C\CCc2c(O)c(cc3c2SCC(=O)N3)NC(=O)C1 (centres undefined)	> 2	0.229	–
Cc1ccc(/C=C2/N=C(N/N=C\c3ccccc3)NC2=O)cc1	> 200	129	–
CSc1nc2c(N)ncnc2n1C	> 200	> 200	–

Structure (SMILES)	EC50 [µM]	IC50 [µM]	outcome
C/C(=N\NS(=O)(=O)c1c(C)cc(C)cc1C)c1ccc[n+]([O-])n1	–	–	inactive
Cc1cc2c(=O)cc(-c3ccc(C(=O)O)cc3)oc2c(C(N)=O)c1C	–	–	inactive
COC1[C@]2(O)C(=O)N3/C=C\C(C)(C)c4[nH]c5ccccc5c4/C=C\3C(=O)N2C23C(C)C(C)(C)N2c2ccccc2[C@]13O (some centres undefined)	–	–	inactive
Cc1cc(C)nc(NS(=O)(=O)c2ccc(NC(=O)c3ccc4nc5ccccc5c(Nc5ccc(S(=O)(=O)N=C(N)N)cc5)c4c3)cc2)n1	72.4	141	–
Cc1c(/C=N/NC(=O)c2ccccc2O)c(=O)n(-c2ccccc2)n1C	> 200	69.2	–
COc1cc2cc3c4c(cc(OC)c(OC)c4c2cc1OC)CCN3C(=O)CCC(=O)O	> 200	123	–
NC(Cc1ccc(OCc2ccccc2)cn1)C(=O)OCc1ccccc1 (centres undefined)	> 200	> 200	–
N#Cc1ncn(Cc2ccccc2)c1N	> 200	> 200	–
N#C/C(C(=O)Nc1ccccc1)=C(/N)N1CCCC1	> 200	174	–
CN(C)C=C1C=CC=C1	166	> 200	–
CCCCCCCCCCCCCCCCOC(=O)c1cc(OCCOP(=O)(O)O)cc(C(=O)OCCCCCCCCCCCCCCCC)c1	–	–	inactive
O=[N+]([O-])C[C@@]12O[C@]3(O)C4C5CC(C6C5C3C61)C42 (some centres undefined)	> 200	> 200	–
COc1cc2c(cc1O)N=C[C@@H]1CCC(O)N1C2=O (mixture of isomers)	> 324	0.575	–
COC(=O)[C@@H]1O[C@]12[C@@H](CO[Si](C)(C)C(C)(C)C)O[C@@H](n1cc(C)c(=O)[nH]c1=O)[C@@H]2O[Si](C)(C)C(C)(C)C	> 200	3.72	–
N#Cc1cc2c(n(NS(=O)(=O)c3ccccc3)c1=O)CCCCC2	> 200	> 200	–
Cc1cccc(C2SCc3nc4ccccc4n32)c1 (centres undefined)	–	–	inactive
CCC(Cc1ccccc1)C1=NC(C)(C)CC(C)O1 (centres undefined)	> 200	79.4	–
COC(=O)N/N=C(/CCN1CCCC1)CC(c1ccccc1)c1c(O)c2ccccc2oc1=O (centres undefined)	> 89.1	83.2	–
COC(=O)C(C)(C)N=CN(C)C	> 1450	> 1450	–
O=C1C[C@@]23CCC4(CC2CCC[C@H]3O1)OCCO4 (some centres undefined)	–	–	inactive
O=[N+]([O-])c1ccccc1-c1nc2nc(N3CCOCC3)nc(N3CCOCC3)n2n1	> 77.6	52.5	–

Source: PubChem BioAssay AID179 (DTP/NCI, 2004)
